Earlier results as cited in patent US8679103B2, “Two step mammalian biofilm treatment processes and systems” (priority 2008, dated 2014).
Converted amounts (≈) assume the structure as drawn.

System: S. aureus Xen 31
Settings: stated as established

O=C(O)c1cn(C2CC2)c2cc(N3CCNCC3)c(F)cc2c1=O [ciprofloxacin]
minimum inhibitory concentration: 3 µg/mL (≈ 9.05 µM)
